In patent publication US20230286973A1, “PROTEIN SECRETION INHIBITORS” (KEZAR LIFE SCIENCES, priority 2020, published 2023):
Read-outs that look alike come from different tables or passages of the source.

Columns and labels:
[1] = system: PD1-ss+10aa/Gaussia Luciferase; experiment: Dox-Induced PD1-ss-Gluc Assay; assay type: cell-based; conditions: 24 hr Dox induction, 293FRT/TO cells, read-out: 24 hr Dox Inducible PD1ssGluc 293FRT/TO: Mean IC50
How it was run: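 Flp-In 293 T-REx, stable line; Tet-regulated PD1-ss+10aa fused to Gaussia luciferase; plated day prior; cpd + doxycycline in DMSO/media; 37 °C, 5% CO2.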

[2] = system: TNFα-FL/Gaussia Luciferase; experiment: Dox Induced TNFα-FL-Gluc Assay; assay type: cell-based; conditions: for IC50: 24 hr Dox induction, 293FRT/TO cells, read-out: 24 hr Dox Inducible TNFaFLGluc 293FRT/TO: Mean IC50; for 24 hr Dox Inducible TNFaFLGluc 293FRT/TO: TNF/PD1: ratio of TNFaFLGluc IC50 to PD1ssGluc IC50
How it was run: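 Cell line: stable Flp-In 293 T-REx, TNFα-FL(1-233)-Gaussia luciferase fusion, T-REx-inducible. Plated day -1; compounds in DMSO/media + doxycycline, 37 °C, 5% CO2. Undefined stereocentres = mixture tested.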

[3] = system: HER3-ss+4aa/Gaussia Luciferase; experiment: Dox-Induced Her3-ss-Gluc Assay; assay type: cell-based; conditions: 24 hr Dox induction, 293FRT/TO cells, read-out: 24 hr Dox Inducible Her3(ss + 4)Gluc 293FRT/TO: Mean IC50
How it was run: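 Flp-In 293 T-REx cells, stable HER3-ss+4aa/Gaussia luciferase insert, hygromycin/blasticidin selected; plated day before; compound in DMSO/media + doxycycline; 37° C., 5% CO2.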

[4] = system: IL-2-FL/Gaussia Luciferase; experiment: Dox Induced IL2-FL-Gluc Assay; assay type: cell-based; conditions: for IC50: 24 hr Dox induction, 293FRT/TO cells, read-out: 24 hr Dox Inducible IL2FLGluc 293FRT/TO: Mean IC50; for 24 hr Dox Inducible IL2FLGluc 293FRT/TO: IL2/PD1: ratio of IL2FLGluc IC50 to PD1ssGluc IC50
How it was run: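 Stable Flp-In 293 T-REx line, Tet-regulated IL-2 (aa 1-153)–Gaussia luciferase fusion; hygromycin/blasticidin selected. Plated day -1; compound + doxycycline added next day; 37° C, 5% CO2.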

[5] = system: multiple myeloma cell line NCI-H929; experiment: H929 Cell Viability Assay; assay type: cell-based, human; conditions: Homo sapiens, NCI-H929, 48 h, NCI-H929 cells, Celltiter-Glo
How it was run: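 Cells in RPMI 1640/10% FBS; compound dilutions in DMSO/media; 48 h, 37° C, 5% CO2; CellTiter-Glo luciferase readout for viability.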

[6] = system: multiple myeloma cell line U266B1; experiment: U266 Cell Viability Assay; assay type: cell-based, human; conditions: Homo sapiens, U-266, 48 h, U266B1 cells, Celltiter-Glo
How it was run: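 Luminescent ATP read-out (CellTiter-Glo) after 48 h compound exposure at 37° C., 5% CO2; cells maintained in RPMI 1640/10% FBS/2 mM glutamine/pen-strep, compounds diluted in DMSO/media.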

[7] = Liver Microsome Stability Assay (rat); conditions: rat liver microsomes, with NADPH, 1.0 uM compound
Method: (§1) Stability of a compound was assessed in the presence of liver microsomes from various sources—mouse, rat, monkey and human liver microsomes. 1.0 uM compound, 0.4% DMSO in 0.1 M Potassium Phosphate with 1.0 mg/mL liver microsomes, were incubated at 37° C. with or without 1 mM NADPH. The samples were quenched at 0, and 30 minutes.

[8] = Liver Microsome Stability Assay (mouse); conditions: mouse liver microsomes, with NADPH, 1.0 uM compound
Method: as §1

[9] = Liver Microsome Stability Assay (human); conditions: human liver microsomes, with NADPH, 1.0 uM compound
Method: as §1

[10] = Liver Microsome Stability Assay (monkey); conditions: monkey liver microsomes, with NADPH, 1.0 uM compound
Method: as §1

[11] = '<=>' given where both are I.A.

Row | Structure (SMILES) | IC50 ([1]; mean) [nM] | IC50 ([2]; mean) [nM] | 24 hr Dox Inducible TNFaFLGluc 293FRT/TO: TNF/PD1 [2, 11] | IC50 ([3]; mean) [nM] | IC50 ([4]; mean) [nM] | 24 hr Dox Inducible IL2FLGluc 293FRT/TO: IL2/PD1 [4, 11] | EC50 [5] [nM] | EC50 [6] [nM] | Liver Microsome Stability (Multiple Species): Rat - % Remaining after 30 min w/NADPH [7] [%] | Liver Microsome Stability (Multiple Species): Mouse - % Remaining after 30 min w/NADPH [8] [%] | Liver Microsome Stability (Multiple Species): Human - % Remaining after 30 min w/NADPH [9] [%] | Liver Microsome Stability (Multiple Species): Monkey - % Remaining after 30 min w/NADPH [10] [%] | IC50 [1] [nM] | IC50 [2] [nM] | 24 hr Dox Inducible TNFaFLGluc 293FRT/TO: TNF/PD1 [2] | IC50 [3] [nM] | IC50 [4] [nM] | 24 hr Dox Inducible IL2FLGluc 293FRT/TO: IL2/PD1 [4]
1 | C/C(=C\c1ccc(OC(F)(F)F)cn1)c1csc(NC(=O)c2cccn2Cc2ccncc2)n1 [Compound E2, (E)-1-(pyridin-4-ylmethyl)-N-(4-(1-(5-(trifluoromethoxy)pyridin-2-yl)prop-1-en-2-yl)thiazol-2-yl)-1H-pyrrole-2-carboxamide] | 23.4 | 4850 | 208 | 409 | 530 | 23 | 7340 | > 25000 | 35.4 | 28.6 | 17.5 | 13.5 | – | – | – | – | – | –
2 | CC(=O)N[C@H](C)c1ccc(N2CCC[C@@H]2c2csc(NC(=O)c3cccn3Cc3ccncc3)n2)cc1 [Compound A66, N-(4-((R)-1-(4-((R)-1-acetamidoethyl)phenyl)pyrrolidin-2-yl)thiazol-2-yl)-1-(pyridin-4-ylmethyl)-1H-pyrrole-2-carboxamide] | – | – | – | – | – | – | 416 | > 25000 | 5.19 | 30 | 2.98 | 2.72 | 27.2 | 584 | 21.5 | 59.7 | 69 | 2.5
3 | O=C(Nc1nc([C@H]2CCCN2c2ccc(O[C@H]3CCOC3)cc2)cs1)c1cccn1Cc1ccncc1 [Compound A4, 1-(pyridin-4-ylmethyl)-N-(4-((R)-1-(4-(((S)-tetrahydrofuran-3-yl)oxy)phenyl)pyrrolidin-2-yl)thiazol-2-yl)-1H-pyrrole-2-carboxamide] | – | – | – | – | – | – | 430 | > 25000 | 15.4 | 9.36 | 4.21 | 0.36 | 16 | 155 | 9.69 | 26.8 | 25.7 | 1.6
4 | O=C(Nc1ccc(N2CCC[C@@H]2c2csc(NC(=O)c3cccn3Cc3ccnc(F)c3)n2)cc1)OC1CNC1 [Compound A178, azetidin-3-yl (R)-(4-(2-(2-(1-((2-fluoropyridin-4-yl)methyl)-1H-pyrrole-2-carboxamido)thiazol-4-yl)pyrrolidin-1-yl)phenyl)carbamate] | – | – | – | – | – | – | 525 | 7400 | 51.4 | 70.6 | 72.8 | 70.8 | 23.9 | 931 | 39 | 76.3 | 107 | 4.5
5 | Cc1cccnc1N1CCC[C@@H]1c1csc(NC(=O)c2cccn2Cc2ccncc2)n1 [Compound E64, (R)-N-(4-(1-(3-methylpyridin-2-yl)pyrrolidin-2-yl)thiazol-2-yl)-1-(pyridin-4-ylmethyl)-1H-pyrrole-2-carboxamide] | 70.3 | 377 | 5.37 | 106 | 70.5 | 1 | 3100 | > 25000 | 0.16 | 0.21 | 6.7 | 7.11 | – | – | – | – | – | –
6 | CC(C)c1nc(/C=C/c2csc(NC(=O)c3cccn3Cc3ccnc(F)c3)n2)cn1C [Compound B67, (E)-1-((2-fluoropyridin-4-yl)methyl)-N-(4-(2-(2-isopropyl-1-methyl-1H-imidazol-4-yl)vinyl)thiazol-2-yl)-1H-pyrrole-2-carboxamide] | – | – | – | – | – | – | 21000 | 19700 | 1.32 | 2.2 | 0.16 | 0.13 | 5370 | > 25000 | >4.66 | 18500 | 19100 | 3.6
7 | COC(=O)Nc1ccc(N2CCC[C@@H]2c2csc(NC(=O)c3cc(C)cn3Cc3ccnc(F)c3)n2)nc1 [Compound A180, methyl (R)-(6-(2-(2-(1-((2-fluoropyridin-4-yl)methyl)-4-methyl-1H-pyrrole-2-carboxamido)thiazol-4-yl)pyrrolidin-1-yl)pyridin-3-yl)carbamate] | – | – | – | – | – | – | 715 | > 25000 | 3.14 | 14.4 | 8.99 | 7.35 | 4.95 | 49.8 | 440.37 | 3.7 | 14.3 | 52.35
8 | O=C(Nc1nc([C@H]2CCCN2c2ccccc2)cs1)c1cccn1Cc1ccccc1 [Compound C5, (R)-1-benzyl-N-(4-(1-phenylpyrrolidin-2-yl)thiazol-2-yl)-1H-pyrrole-2-carboxamide] | 2200 | > 25000 | >11.4 | 2420 | 2880 | 1.3 | > 25000 | > 25000 | 67.5 | 65.6 | 87.9 | 63 | – | – | – | – | – | –
9 | CN(C)S(=O)(=O)N1CC(Oc2ccc(N3CCC[C@@H]3c3csc(NC(=O)c4cccn4Cc4ccnc(F)c4)n3)cc2)C1 [Compound A148, (R)-N-(4-(1-(4-((1-(N,N-dimethylsulfamoyl)azetidin-3-yl)oxy)phenyl)pyrrolidin-2-yl)thiazol-2-yl)-1-((2-fluoropyridin-4-yl)methyl)-1H-pyrrole-2-carboxamide] | – | – | – | – | – | – | 1660 | 11100 | 28.3 | 4.79 | 7.55 | 0.84 | 45.9 | 579 | 12.6 | 73 | 87.2 | 1.9
